One assay has as its target EGFR L858R/T790M (Homo sapiens (Human), UniProt P00533, L858R/T790M). Description: HTRF-based EGFR biochemical assay (L858R/T790M). As to conditions: 100 μM ATP, enzyme 0.02 nM. The protocol: (§1) Example 25: HTRF-Based EGFR Biochemical Assays
(§2) EGFR biochemical activity measurements were carried out using the homogeneous time-resolved fluorescence (HTRF) assay (Cisbio), inhibitors and DMSO normalizations were first dispensed to empty black low-volume 384-well plates (Corning) with 0300 digital liquid dispenser (HP). All reactions were carried out at room temperature and solutions were added to plates with a Multidrop Combi Reagent Dispenser (ThermoFisher). The reaction mixture (10 μL final volume) contained 1 μM tyrosine kinase peptide-biotin substrate and mutant EGFR in a reaction buffer (50 mM HEPES pH 7.0, 5 mM MgCl2, 1 mM MnCl2, 0.01% BSA, 2 mM TCEP, 0.1 mM NaVO4). Enzyme concentrations were adjusted to accommodate varying kinase activities (L858R 0.1 nM, L858R/T790M 0.02 nM). Enzyme reaction solution (2× concentrations, 5 μL) was added to 384-well plates containing compounds and incubated for 30 mins. Enzyme reactions were initiated with the addition of 5 μL of ATP to a final concentration of 100 μM and reacted for 20 mins. Reactions were quenched with the addition of 10 μL of phospho-tyrosine antibody-Europium(III) cryptate (1-to-180 volume ratio) and Streptavidin-XL665 (46.7 nM) in EDTA-containing detection buffer, then incubated at room temperature for 1 hour, and read with a PHERAstar plate reader (excitation=337 nm, emission=620 nm and 665 nm).

Another assay deals with EGFR L858R (Homo sapiens (Human), UniProt P00533, L858R). In words: HTRF-based EGFR biochemical assay (L858R). The note with it: 100 μM ATP, enzyme 0.1 nM. The protocol: as §1, §2
On the technique in general: TR-FRET usually uses a lanthanide donor and a delayed reading to cut background.

Assay [1] deals with EGFR mutant L858R/T790M Ba/F3 cells. Description: Ba/F3 cell proliferation model (Cell Titer Glo), EGFR L858R/T790M. Type of assay: cell-based, murine. The note with it: 72 hours. The text has this: Example 26: Ba/F3 Cell Proliferation Models
The EGFR mutant L858R and L858R/T790M Ba/F3 cells have been previously described (Zhou, W., et al. Nature 462, 2009, 1070-1074). All cell lines were maintained in RPM 1640 (Cellgro; Mediatech Inc., Herndon. CA) supplemented with 10% FBS, 100 units/mL penicillin, 100 units/mL streptomycin. The EGFR I941R mutation was introduced via site directed mutagenesis using the Quick Change Site-Directed Mutagenesis kit (Stratagene; La Jolla, CA) according to the manufacturer's instructions. All constructs were confirmed by DNA sequencing. The constructs were shuttled into the retroviral vector JP1540 using the Cre-recombination system (Agilent Technologies, Santa Clara, CA). Ba/F3 cells were then infected with retrovirus per standard protocols, as described previously (Zhou, et al, Nature 2009). Stable clones were obtained by selection in puromycin (2 μg/ml).
Growth and inhibition of growth was assessed by the Cell Titer Glo® assay (Promega, Madison, WI) and was performed according to the manufacturer's instructions. The Cell Titer Glo® assay is a luminescence-based method used to determine the number of viable cells based on quantitation of the ATP present, which is directly proportional to the amount of metabolically active cells present. Ba/F3 cells of different EGFR genotypes were exposed to compounds as a single agent or in combination with 1 μg/mL cetuximab for 72 hours and the number of cells used per experiment was determined empirically as has been previously established (Zhou, et al., Nature 2009). All experimental points were set up in triplicates in 384-well plates and all experiments were repeated at least three times. […] The curves were fitted using a non-linear regression model with a sigmoidal dose response.
(In general: In ATP-based viability assays light output follows the ATP content of the culture.)

[2] abbreviates: Mus musculus, BaF3, single agent, read-out: Cell IC50 BaF3 EGFR L858R/T790M.
[3] abbreviates: in combination with 1 μg/mL cetuximab, read-out: Cell IC50 BaF3 EGFR L858R/T790M (+cetux.).

The structures appear in SMILES notation. Where a name gives a salt, the structure may show the parent alone. Read-outs that look alike come from different tables or passages of the source.

Sequence of EGFR L858R (P00533 25-1210 L858R): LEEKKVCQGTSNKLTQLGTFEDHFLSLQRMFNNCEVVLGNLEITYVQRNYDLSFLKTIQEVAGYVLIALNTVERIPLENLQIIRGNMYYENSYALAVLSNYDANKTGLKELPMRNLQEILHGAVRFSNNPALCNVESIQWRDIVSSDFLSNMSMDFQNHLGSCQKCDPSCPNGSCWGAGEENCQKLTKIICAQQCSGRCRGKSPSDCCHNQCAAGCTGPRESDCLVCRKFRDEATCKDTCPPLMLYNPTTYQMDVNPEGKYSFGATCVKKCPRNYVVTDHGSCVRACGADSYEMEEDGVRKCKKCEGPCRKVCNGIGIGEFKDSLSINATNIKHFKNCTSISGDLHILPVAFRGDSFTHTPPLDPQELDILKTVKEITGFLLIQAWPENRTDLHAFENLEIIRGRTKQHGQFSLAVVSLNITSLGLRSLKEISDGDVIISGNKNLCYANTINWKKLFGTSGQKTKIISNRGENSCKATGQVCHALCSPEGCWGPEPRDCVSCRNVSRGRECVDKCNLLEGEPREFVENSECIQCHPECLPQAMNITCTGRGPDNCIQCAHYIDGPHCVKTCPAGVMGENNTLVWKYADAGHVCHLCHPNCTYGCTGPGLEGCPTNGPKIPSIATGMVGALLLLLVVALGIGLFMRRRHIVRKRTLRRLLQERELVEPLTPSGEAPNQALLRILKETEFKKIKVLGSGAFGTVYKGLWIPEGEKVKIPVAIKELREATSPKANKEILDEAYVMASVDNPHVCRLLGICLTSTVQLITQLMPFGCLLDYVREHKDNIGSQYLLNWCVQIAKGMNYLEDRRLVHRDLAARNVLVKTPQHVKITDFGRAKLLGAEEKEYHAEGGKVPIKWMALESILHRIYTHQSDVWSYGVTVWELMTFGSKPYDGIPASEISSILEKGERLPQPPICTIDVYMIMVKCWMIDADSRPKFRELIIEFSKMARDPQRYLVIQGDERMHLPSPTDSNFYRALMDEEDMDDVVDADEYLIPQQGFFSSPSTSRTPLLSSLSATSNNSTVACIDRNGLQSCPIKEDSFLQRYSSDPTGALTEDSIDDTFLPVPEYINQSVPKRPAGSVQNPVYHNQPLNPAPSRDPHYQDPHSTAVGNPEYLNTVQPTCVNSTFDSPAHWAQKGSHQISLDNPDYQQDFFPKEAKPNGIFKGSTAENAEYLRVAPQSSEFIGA
Sequence of EGFR L858R/T790M (P00533 25-1210 T790M/L858R): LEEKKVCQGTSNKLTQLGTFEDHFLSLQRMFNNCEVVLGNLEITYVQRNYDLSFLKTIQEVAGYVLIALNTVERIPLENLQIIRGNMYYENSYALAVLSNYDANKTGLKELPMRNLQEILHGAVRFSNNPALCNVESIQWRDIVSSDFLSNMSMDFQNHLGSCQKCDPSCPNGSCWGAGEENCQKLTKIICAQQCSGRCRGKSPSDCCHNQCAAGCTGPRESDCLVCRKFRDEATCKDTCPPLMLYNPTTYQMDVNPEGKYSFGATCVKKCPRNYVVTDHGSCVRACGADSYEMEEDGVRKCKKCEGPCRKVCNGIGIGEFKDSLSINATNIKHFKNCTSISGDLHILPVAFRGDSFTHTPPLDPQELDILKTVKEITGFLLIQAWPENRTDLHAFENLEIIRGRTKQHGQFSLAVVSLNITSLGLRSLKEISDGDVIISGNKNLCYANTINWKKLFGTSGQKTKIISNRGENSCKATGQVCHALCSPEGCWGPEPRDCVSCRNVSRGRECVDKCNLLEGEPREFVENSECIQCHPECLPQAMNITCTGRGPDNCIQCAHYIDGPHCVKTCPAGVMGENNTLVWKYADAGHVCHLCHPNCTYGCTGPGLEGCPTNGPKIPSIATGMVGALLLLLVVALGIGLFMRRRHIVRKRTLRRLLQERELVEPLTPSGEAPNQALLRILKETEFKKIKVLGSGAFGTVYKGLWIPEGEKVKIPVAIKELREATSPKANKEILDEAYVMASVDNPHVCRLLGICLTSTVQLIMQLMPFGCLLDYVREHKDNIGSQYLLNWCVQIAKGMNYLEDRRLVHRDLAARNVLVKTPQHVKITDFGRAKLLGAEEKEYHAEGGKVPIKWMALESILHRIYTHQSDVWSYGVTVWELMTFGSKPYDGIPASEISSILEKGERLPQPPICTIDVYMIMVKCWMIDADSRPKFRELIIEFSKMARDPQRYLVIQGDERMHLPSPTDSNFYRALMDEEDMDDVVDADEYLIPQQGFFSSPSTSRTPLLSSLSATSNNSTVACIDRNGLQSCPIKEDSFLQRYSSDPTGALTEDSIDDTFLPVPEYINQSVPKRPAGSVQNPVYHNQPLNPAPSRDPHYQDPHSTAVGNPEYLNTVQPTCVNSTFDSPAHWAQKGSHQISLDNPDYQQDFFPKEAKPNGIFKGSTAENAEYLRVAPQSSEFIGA

In the case of `CN1CCC(c2ccc(-c3ccc4c(c3)C(=O)N(C(c3nc5ccccc5[nH]3)c3cc(F)ccc3O)C4)cc2F)CC1` (centres unmarked) [Compound 017, 2-[1H-Benzimidazol-2-yl-(5-fluoro-2-hydroxy-phenyl)methyl]-6-[3-fluoro-4-(1-methyl-4-piperidyl)phenyl]isoindolin-1-one; hydrochloride], the IC50 turned out to be 0.4 nM on EGFR L858R/T790M, 1 nM on EGFR L858R, 260 nM in assay [1] (setting [2]) and 6 nM in assay [1] (setting [3]).
With `[2H]C1([2H])c2ccc(-c3ccc(C4CCN(C)CC4)cc3)cc2C(=O)N1C([2H])(c1nc2ccccc2[nH]1)c1cc(F)ccc1O` (centres unmarked) [Compound 039, 2-((1H-Benzo[d]imidazol-2-yl)(5-fluoro-2-hydroxyphenyl)methyl-d)-6-(4-(1-methylpiperidin-4-yl)phenyl)isoindolin-1-one-3,3-d2], the IC50 is 0.5 nM against EGFR L858R/T790M, 2.9 nM on EGFR L858R, 280 nM in assay [1] (setting [2]) and 14 nM in assay [1] (setting [3]).
The like results for `O=C1c2cc(-c3ccc(N4CCOCC4)cc3)ccc2CN1C(c1nc2ccccc2[nH]1)c1cc(F)ccc1O` (centres unmarked) [Compound 059, 2-(1H-benzimidazol-2-yl-(5-fluoro-2-hydroxy-phenyl)-methyl]-6-(4-morpholinopheny)-isoindolin-1-one; hydrochloride] were, in that order, 13 nM, over 100 nM, 790 nM and 10 nM.
For `CN1CCC(c2ccc(-c3cnc4c(c3)C(=O)N(C(c3nc5ccccc5[nH]3)c3cc(F)ccc3O)C4)cc2)CC1` (centres unmarked) [Compound 010, 6-[1H-Benzimidazol-2-yl-(5-fluoro-2-hydroxy-phenyl)methyl]-3-[4-(1-methyl-4-piperidyl)phenyl]-7H-pyrrolo[3,4-b]pyridin-5-one] the same measures were 4 nM, 12 nM, 1930 nM and 20 nM.
The like results for `COc1cccc2[nH]c(C(c3cc(F)ccc3O)N3Cc4ccc(-c5ccc(C6CCN(C)CC6)cc5)cc4C3=O)nc12` (centres unmarked) [Compound 051] were, in that order, 1 nM, 10 nM, 3920 nM and 1050 nM.
As for `CN1CCC(c2ccc(-c3ccc4c(c3F)C(=O)N(C(c3nc5c(F)cccc5[nH]3)c3cc(F)ccc3O)C4)cc2F)CC1` (centres unmarked) [Compound 081, 7-fluoro-2-[(4-fluoro-1H-benzimidazol-2-yl)-(5-fluoro-2-hydroxy-phenyl)methyl]-6-[3-fluoro-4-(1-methyl-4-piperidyl)phenyl]isoindolin-1-one; dihydrochloride], the results for the IC50 (against EGFR L858R/T790M; against EGFR L858R; in assay [1] (setting [2])) were 0.8 nM, 6 nM and 210 nM, respectively.
For the compound `CN1CCC(c2ccc(-c3ccc4ncn(C(c5nc6ccccc6[nH]5)c5cc(F)ccc5O)c(=O)c4c3)cc2F)CC1` (centres unmarked) [Compound 001, 3-[1H-Benzimidazol-2-yl-(5-fluoro-2-hydroxy-phenyl)methyl]-6-[3-fluoro-4-(1-methyl-4-piperidyl)phenyl]quinazolin-4-one; hydrochloride], the IC50 at EGFR L858R/T790M is 0.4 nM; on EGFR L858R it was 1 nM; in assay [1] (setting [2]) it was 320 nM; in assay [1] (setting [3]), 9 nM.
The like results for `CN1CCC(c2ccc(-c3ccc4c(F)cn(C(c5nc6ccccc6[nH]5)c5cc(F)ccc5O)c(=O)c4c3)cc2)CC1` (centres unmarked) [Compound 054, 2-[1H-benzimidazol-2-yl-(5-fluoro-2-hydroxy-phenyl)-methyl]-4-fluoro-7-[4-(1-methy-4-piperidyl)phenyl]isoquinolin-1-one] were, in that order, 0.4 nM, 2 nM, 1060 nM and 20 nM.
As for `CN1CCC(c2ccc(-c3cc(F)c4c(=O)n(C(c5nc6ccccc6[nH]5)c5cc(F)ccc5O)ccc4c3)cc2F)CC1` (centres unmarked) [Compound 111, 2-[1H-Benzimidazol-2-yl-(5-fluoro-2-hydroxy-phenyl)methyl]-8-fluoro-6-[3-fluoro-4-(1-methyl-4-piperidyl)-phenyl]isoquinolin-1-one; dihydrochloride], the values for the IC50 at EGFR L858R/T790M and at EGFR L858R were 0.6 nM and 3 nM, respectively.
The like results for `CN1CCC(c2ccc(-c3ccc4c(=O)n(C(c5nc6c(F)cccc6[nH]5)c5cc(F)ccc5O)ccc4c3)cc2)CC1` (centres unmarked) [Compound 102, 2-((4-Fluoro-1H-benzo[d]imidazol-2-yl)(5-fluoro-2-hydroxyphenyl)methyl)-6-(4-(1-methylpiperidin-4-yl)phenyl)isoquinolin-1(2H)-one] were, in that order, 4 nM and 6 nM.
As to `CN1CCC(c2ccc(-c3ccc4c(n3)C(=O)N([C@@H](c3nc5ccccc5[nH]3)c3cc(F)ccc3O)C4)cc2)CC1` (single isomer, unassigned) [Compound 106], the IC50 at EGFR L858R/T790M turned out to be 0.8 nM; against EGFR L858R, 3 nM.
For `CN1CCC2(c3ccc(-c4cc(F)c5c(=O)n(C(c6nc7ccccc7[nH]6)c6cc(F)ccc6O)ccc5c4)cc3)CC2C1` (centres unmarked) [Compound 110, 2-[1H-Benzimidazol-2-yl-(5-fluoro-2-hydroxy-phenyl)methyl]-8-fluoro-6-4-(3-methyl-3-azabicyclo[4.1.0]-heptan-6-yl)phenyl]isoquinolin-1-one; dihydrochloride] the same measures were 0.6 nM and 3 nM.
For `CN1CCC(c2ccc(-c3ccc4c(c3)C(=O)N([C@H](c3nc5ccccc5[nH]3)c3cc(F)ccc3O)C4)cc2)CC1` (single isomer, unassigned) [Compound 037] the same measures were 0.5 nM and 1.4 nM.
For `CN1CCC(c2ccc(-c3ccc4c(c3)C(=S)N([C@H](c3nc5ccccc5[nH]3)c3cc(F)ccc3O)C4)cc2)CC1` (single isomer, unassigned) [Compound 084] the same measures were 232 nM and 219 nM.
In the case of `Cc1c[nH]c([C@@H](c2cc(F)ccc2O)N2Cc3ccc(-c4ccc(C5CCN(C)CC5)cc4)c(F)c3C2=O)n1` (single isomer, unassigned) [Compound 94], the IC50 on EGFR L858R/T790M came out at 2 nM; against EGFR L858R, 1 nM.
For `CN1CCC(c2ccc(-c3ccc4c(=O)n(C(c5nc6ccccc6[nH]5)c5cc(F)ccc5O)ccc4c3)cc2F)CC1` (centres unmarked) [Compound 109, 2-[1H-Benzimidazol-2-yl-(5-fluoro-2-hydroxy-phenyl)methyl]-6-[3-fluoro-4-(1-methyl-4-piperidyl)phenyl]isoquinolin-1-one; dihydrochloride] the same measures were 2 nM and 4 nM.
The like results for `CN1CCC2(c3ccc(-c4ccc5c(=O)n(C(c6nc7ccccc7[nH]6)c6cc(F)ccc6O)ccc5c4)cc3)CC2C1` (centres unmarked) [Compound 108, 2-[1H-Benzimidazol-2-yl-(5-fluoro-2-hydroxy-phenyl)methyl]-6-[4-(3-methyl-3-azabicyclo[4.1.0]heptan-6-yl)phenyl]isoquinolin-1-one; dihydrochloride] were, in that order, 2 nM and 5 nM.
With `CN1CCC(c2ccc(-c3cc(F)c4c(=O)n([C@@H](c5nc6ccccc6[nH]5)c5cc(F)ccc5O)ccc4c3)cc2)CC1` (single isomer, unassigned) [Compound 116, dihydrochloride], the figures for the IC50 against EGFR L858R/T790M (dihydrochloride) and at EGFR L858R (dihydrochloride) were 0.2 nM and 0.8 nM, respectively.
Regarding `Cc1c[nH]c([C@@H](c2cc(F)ccc2O)N2Cc3ccc(-c4ccc(C5CCN(C)CC5)cc4)cc3C2=O)n1` (single isomer, unassigned) [Compound 104], the IC50 was 2 nM at EGFR L858R/T790M and 1 nM at EGFR L858R.

The values above are taken from patent US12391671B2, “Allosteric EGFR inhibitors and methods of use thereof” (Dana-Farber Cancer Institute, Inc., priority 2019, dated 2025).
